Results on one molecule are retold here after ChEMBL document CHEMBL3112498, “Inhibition of protein kinase C α/βII and activation of c-Jun NH2-terminal kinase mediate glycyrrhetinic acid induced apoptosis in non-small cell lung cancer NCI-H460 cells” (Bioorg Med Chem Lett, 2014).

The test system of assay [1] is NCI-H460. As to the kind of experiment: Induction of apoptosis in human NCI-H460 cells assessed as downregulation of Bcl-xL protein expression at 12.5 to 50 uM after 24 hrs by Western blot analysis. It is filed as functional, cell-based.
Assay [2] relates to NCI-H460. As to the kind of experiment: Induction of apoptosis in human NCI-H460 cells assessed as activation of caspase 9/3 at 12.5 to 50 uM after 24 hrs by Western blot analysis. It is filed as functional, cell-based.
Assay [3] has as its system NCI-H460. Nature of the assay: Induction of apoptosis in human NCI-H460 cells assessed as PARP cleavage at 12.5 to 50 uM after 24 hrs by Western blot analysis. It is filed as functional, cell-based.
Assay [4] relates to NCI-H460. As to the kind of experiment: Cytotoxicity against human NCI-H460 cells assessed as cell viability after 24 hrs by XTT assay. It is filed as functional, cell-based. As to conditions: NCI-H460, 24 h.
In assay [5] the test system is A549. As to the kind of experiment: Cytotoxicity against human A549 cells assessed as cell viability after 24 hrs by XTT assay. Particulars: A549, 24 h. It is filed as functional, cell-based.
Assay [6] deals with NCI-H460. As to the kind of experiment: Induction of apoptosis in human NCI-H460 cells assessed as DNA fragmentation after 24 hrs by DAPI staining-based TUNEL assay. It is filed as functional, cell-based.
Assay [7] concerns NCI-H460. As to the kind of experiment: Cell cycle arrest in human NCI-H460 cells assessed as accumulation at sub-G1 phase after 1 hr by propidium iodide staining-based flow cytometric analysis. It is filed as functional.
In assay [8] the test system is NCI-H460. As to the kind of experiment: Cell cycle arrest in human NCI-H460 cells assessed as accumulation at sub-G1 phase at 50 uM after 24 hrs by propidium iodide staining-based flow cytometric analysis in presence of PKC promoter PMA, JNK inhibitor SP600125. It is filed as functional.
The target in assay [9] is T1, PKC alpha and beta-2 (Homo sapiens) (UniProt P17252+P05771). As to the kind of experiment: Inhibition of PKC alpha/beta-2 phosphorylation in human NCI-H460 cells at 50 uM after 24 hrs by Western blot analysis in presence of PKC promoter PMA, JNK inhibitor SP600125. It is filed as cell-based.
Assay [10] relates to NCI-H460. Nature of the assay: Induction of apoptosis in human NCI-H460 cells assessed as PARP cleavage at 50 uM after 24 hrs by Western blot analysis in presence of PKC promoter PMA, JNK inhibitor SP600125. It is filed as functional, cell-based.
Assay [11] has as its system NCI-H460. As to the kind of experiment: Induction of apoptosis in human NCI-H460 cells assessed as caspase-3 cleavage at 50 uM after 24 hrs by Western blot analysis in presence of PKC promoter PMA, JNK inhibitor SP600125. It is filed as functional, cell-based.
The target of assay [12] is c-Jun N-terminal kinase, JNK (Homo sapiens) (UniProt P45983+P53779+P45984). As to the kind of experiment: Induction of c-Jun N-terminal kinase phosphorylation in human NCI-H460 cells at 12.5 to 50 uM after 24 hrs by Western blot analysis. It is filed as cell-based.
The target in assay [13] is Protein kinase C delta type (Homo sapiens) (UniProt Q05655). Nature of the assay: Induction of PKC-delta phosphorylation in human NCI-H460 cells at 12.5 to 50 uM after 24 hrs by Western blot analysis. It is filed as cell-based.
Assay [14] relates to NCI-H460. As to the kind of experiment: Inhibition of ERK phosphorylation in human NCI-H460 cells at 12.5 to 50 uM after 24 hrs by Western blot analysis. It is filed as cell-based.
The target of assay [15] is T1, PKC alpha and beta-2 (Homo sapiens). As to the kind of experiment: Inhibition of PKC alpha/beta-2 phosphorylation in human NCI-H460 cells at 12.5 to 50 uM after 24 hrs by Western blot analysis. It is filed as cell-based.
For assay [16], the system named is A549. Nature of the assay: Cell cycle arrest in human A549 cells assessed as accumulation at sub-G1 phase at 50 uM after 1 hr by propidium iodide staining-based flow cytometric analysis. It is filed as functional.
Assay [17] relates to A549. As to the kind of experiment: Induction of apoptosis in human A549 cells assessed as PARP cleavage at 12.5 to 50 uM after 24 hrs by Western blot analysis. It is filed as functional, cell-based.
Assay [18] has as its system NCI-H460. As to the kind of experiment: Cell cycle arrest in human NCI-H460 cells assessed as accumulation at sub-G1 phase at 50 uM after 1 hr by propidium iodide staining-based flow cytometric analysis (reference value: 2.2%). It is filed as functional.
Assay [19] has as its system NCI-H460. As to the kind of experiment: Cell cycle arrest in human NCI-H460 cells assessed as accumulation at sub-G1 phase at 12.5 uM after 1 hr by propidium iodide staining-based flow cytometric analysis (reference value: 2.2%). It is filed as functional.
Assay [20] has as its system NCI-H460. As to the kind of experiment: Induction of apoptosis in human NCI-H460 cells assessed as downregulation of cyclin E protein expression at 12.5 to 50 uM after 24 hrs by Western blot analysis. It is filed as functional, cell-based.
For assay [21], the system named is NCI-H460. Nature of the assay: Induction of apoptosis in human NCI-H460 cells assessed as downregulation of cyclin D1 protein expression at 12.5 to 50 uM after 24 hrs by Western blot analysis. It is filed as functional, cell-based.
The subject of assay [22] is NCI-H460. Nature of the assay: Induction of apoptosis in human NCI-H460 cells assessed as downregulation of Bcl-2 protein expression at 12.5 to 50 uM after 24 hrs by Western blot analysis. It is filed as functional, cell-based.

In brackets after ≈: the same amount, converted by molar mass. Activity calls are given as the source filed them. The calls are words filed in the database; no cut-off is given here.

T1 sequence (P05771 whole entry, looked up): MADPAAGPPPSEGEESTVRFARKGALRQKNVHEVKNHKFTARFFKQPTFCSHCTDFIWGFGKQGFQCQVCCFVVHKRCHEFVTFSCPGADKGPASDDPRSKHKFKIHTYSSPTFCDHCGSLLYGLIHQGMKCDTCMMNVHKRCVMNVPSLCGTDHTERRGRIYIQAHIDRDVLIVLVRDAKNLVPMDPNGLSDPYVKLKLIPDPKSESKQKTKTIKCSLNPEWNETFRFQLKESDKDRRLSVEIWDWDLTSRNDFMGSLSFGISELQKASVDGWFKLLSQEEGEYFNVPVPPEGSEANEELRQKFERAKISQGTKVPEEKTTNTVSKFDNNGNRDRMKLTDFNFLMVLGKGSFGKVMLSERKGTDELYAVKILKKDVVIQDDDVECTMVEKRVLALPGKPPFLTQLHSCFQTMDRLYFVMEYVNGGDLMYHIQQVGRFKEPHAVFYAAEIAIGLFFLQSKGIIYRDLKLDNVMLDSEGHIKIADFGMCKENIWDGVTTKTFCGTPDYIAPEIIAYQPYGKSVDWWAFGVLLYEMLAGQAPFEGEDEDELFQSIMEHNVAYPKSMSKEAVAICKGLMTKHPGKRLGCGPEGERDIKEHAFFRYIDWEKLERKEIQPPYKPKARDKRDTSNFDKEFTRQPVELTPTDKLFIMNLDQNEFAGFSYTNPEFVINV
Protein kinase C delta type (Homo sapiens), sequence (Q05655 whole entry, looked up): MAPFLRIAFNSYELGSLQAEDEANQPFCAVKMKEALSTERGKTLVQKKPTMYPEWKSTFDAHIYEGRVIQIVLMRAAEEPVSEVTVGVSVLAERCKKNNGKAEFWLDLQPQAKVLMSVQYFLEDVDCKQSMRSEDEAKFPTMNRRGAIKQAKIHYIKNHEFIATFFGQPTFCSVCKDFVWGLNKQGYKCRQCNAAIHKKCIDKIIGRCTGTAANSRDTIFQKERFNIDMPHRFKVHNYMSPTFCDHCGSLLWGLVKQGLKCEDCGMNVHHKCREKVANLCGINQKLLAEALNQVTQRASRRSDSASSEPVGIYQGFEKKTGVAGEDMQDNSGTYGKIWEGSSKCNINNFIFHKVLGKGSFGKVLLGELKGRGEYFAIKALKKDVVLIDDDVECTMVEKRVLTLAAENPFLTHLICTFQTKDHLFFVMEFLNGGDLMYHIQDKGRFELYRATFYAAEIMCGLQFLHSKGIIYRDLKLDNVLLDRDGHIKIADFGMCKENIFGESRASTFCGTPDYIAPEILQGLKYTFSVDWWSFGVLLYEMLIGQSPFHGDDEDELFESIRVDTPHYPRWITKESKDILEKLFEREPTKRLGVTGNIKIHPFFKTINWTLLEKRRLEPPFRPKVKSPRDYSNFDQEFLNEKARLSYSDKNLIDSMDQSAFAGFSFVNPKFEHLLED

As to `CC1(C)[C@@H](O)CC[C@]2(C)[C@H]3C(=O)C=C4[C@@H]5C[C@@](C)(C(=O)O)CC[C@]5(C)CC[C@@]4(C)[C@]3(C)CC[C@@H]12` [ENOXOLONE], the result in assay [1], in assay [2], in assay [3], in [12], in [13] and in [16] was Active. For the same molecule, the outcome in assay [17], in assay [20], in assay [21] and in assay [22] was Active. The IC50 was found to be 62 µg/mL (≈ 132 µM) in assay [4] and 78 µg/mL (≈ 166 µM) in assay [5]. The Activity result in assay [6] is “Dose-dependent effect”; in assay [7], “Dose-dependent effect”; in [18], 40.1%; in [19] it was 2.8%. For the same molecule, the outcome in assay [8], in assay [10] and in [11] was inactive. In assay [9], the inhibition result is “inactive”. Besides, the inhibition result in assay [14] and in assay [15] was “Active” throughout.
